# Key:
# [1] = test system: regional heart ischemia reperfusion; assay: regional heart ischemia reperfusion model (LAD occlusion); assay type: in vivo, rat; details: iv bolus pre-ischemia plus iv bolus post-ischemia, 10 to 40 mg/kg; 30 min LAD occlusion, 2 hr reperfusion; male SD rats
# Description: In the present study, we investigated the effects of 43 in the regional heart ischemia reperfusion model. In regional heart ischemia model, sodium thiopental-anaesthetized male SD rats were subjected to occlusion of LAD coronary artery for 30 min followed by 2 hr of reperfusion. The infarct size was quantified by TTC staining method and expressed as percent of area at risk.
# The left anterior descending coronary artery of Sprague-Dawley rats was occluded for 30 minutes. This was followed by 90-120 minutes of blood reflow. PARP inhibitor compounds were given intraperitoneally (ip), 60 minutes pre-, or intravenously (iv), 15 or 5 minutes pre- and 25 minutes post-onset of ischemia. Infarct size was determined by TTC staining and the risk area was determined via blue dye injection.
# [2] = test system: murine melanoma cell line B16; assay: colony-formation assay, B16; assay type: cell-based
# Description: (§1) The murine melanoma cell line B16 of C57BL/6J (H-2^b/H-2^b) origin and the lymphoma cell line L5178Y of DBA/2 (H-2^d/H-2^d) origin (ATCC, Manassas, Va.) were cultured in RPMI-1640 containing 10% fetal calf serum (Invitrogen, Milan, Italy), 2 mM L-glutamine, 100 units/ml penicillin and 100 μg/ml streptomycin (Flow Laboratories, Mc Lean, Va.), at 37° C. in a 5% CO2 humidified atmosphere. The human glioblastoma multiforme cell line SJGBM2 was cultured in DMEM (Invitrogen) supplemented with 10% fetal calf serum, 2 mM L-glutamine and antibiotics. SJGBM2 cell line was a kind gift from Dr. Peter J. Houghton (St. Jude Children's Research Hospital, Memphis, Tenn., USA).
# (§2) […] For the experiments aimed at assessing the enhancing effect of 43 on TMZ-induced tumor growth inhibition, the methylating agent was added to cell cultures 15 min after 43 was used at concentrations non-toxic, and capable of abrogating PARP activity.
# (§3) Long-term survival was analyzed by colony-formation assay. Exponentially growing melanoma and glioblastoma cells were seeded into 6-well plates at a density of 2×10^2/well and left to attach for 18 h; cells were then treated with the compounds under study and cultured to allow colony formation. After 10 days, colonies (defined as a cluster of >50 cells) were fixed and stained with rhodamine B basic violet 10 (ICN Biomedicals Inc., Aurora, Ohio, USA). Untreated or treated lymphoma cells were seeded at 1 cell/well in 96-well plates (flat-bottomed) and cultured. After 10 days, colonies were counted to determine cloning efficiency, using an optical microscope (Tentori 2001b).
# (§4) Cell line chemosensitivity to TMZ, 43 or to the drug combination was evaluated in terms of IC50, i.e. the concentration of the drug expressed in μM, capable of inhibiting colony-forming ability by 50%. The IC50 was calculated on the regression line in which the number of colonies was plotted vs the drug concentration.
# [3] = test system: human glioblastoma multiforme cell line SJGBM2; assay: colony-formation assay, SJGBM2; assay type: cell-based
# Description: as §1
# Cells were treated with 43 (0.1-20 μM) or with TMZ (1-250 μM). For the experiments aimed at assessing the enhancing effect of 43 on TMZ-induced tumor growth inhibition, the methylating agent was added to cell cultures 15 min after 43 was used at concentrations non-toxic, and capable of abrogating PARP activity.
# as §3, §4
# [4] = test system: lymphoma cell line L5178Y; assay: colony-formation assay, L5178Y; assay type: cell-based, murine
# Description: as §1, §2, §3, §4
# B16 melanoma [5] = assay: B16 melanoma growing subcutaneously in B6D2F1 mice; assay type: in vivo, mouse; details: 3 days
# Description: 43 was administered 15 min before TMZ administration. Control mice were always injected with drug vehicles.
# The efficacy of TMZ±43 treatment was also evaluated on melanoma growing subcutaneously (sc). For this purpose B16 cells (2.5×10^5) were inoculated sc in the flank of the animal. Tumors were measured with calipers and volume calculated according to the formula: [(width)^2×length]/2. Treatment was started 6 days after challenge, when the volume of tumor nodules reached 100-150 mm^3. Melanoma growth was monitored, by measuring tumor nodules every 3 days for 3 weeks.
# B16 melanoma [6] = assay: B16 melanoma growing at the CNS site (intracranial); assay type: in vivo, mouse
# Description: (§5) The intracranial transplantation procedure was performed as previously described (Tentori 2002b). Cells (10^4 in 0.03 ml of RPMI-1640) were injected intra-cranially (ic) through the center-middle area of the frontal bone to a 2 mm depth, using a 0.1 ml glass microsyringe and a 27-gauge disposable needle.
# (§6) Murine melanoma B16 or lymphoma L5178Y cells (10^4) were injected ic into male B6D2F1 (C57BL/6×DBA/2) mice. Human glioblastoma multiforme SJGBM2 cells (10^6) were injected ic into male athymic BALB/c mice (nu/nu genotype). Before tumor challenge, animals were anesthetized with ketamine (100 mg/kg) and xylazine (5 mg/kg) in 0.9% NaCl solution (10 ml/kg/ip).
# (§7) Mice were monitored for mortality for 90 days. Median survival times (MST) were determined and the percentage of increase in lifespan (ILS) was calculated as: {[MST (days) of treated mice/MST (days) of control mice]−1}×100. Efficacy of treatments was evaluated by comparing survival curves between treated and control groups.
# (§8) To assess the ability of different treatments to reduce tumor growth, histological examination of the brains was performed using additional animals that were not considered for the analysis of survival. Mice were sacrificed at different time points after tumor challenge, selected within the MST range of untreated tumor-bearing animals.
# [7] = crossing of the blood-brain barrier; assay type: in vivo; details: systemic administration
# [8] = test system: SJGBM2 human glioblastoma multiforme; assay: orthotopic human glioblastoma multiforme xenograft in nude mice; assay type: in vivo, mouse; details: with respect to controls or single agents
# Description: as §5, §6, §7, §8
# [9] = drug toxicity / maximal tolerated dose in intact mice; details: TMZ ip + 43 iv, for 3 days
# Description: Drug toxicity was evaluated by treating intact mice (5/group) with the compounds under study, used as single agents or in combination. Control groups were treated with vehicles only. Body weight was measured three times weekly and survivals were recorded for 3 weeks after the last treatment. Toxicity was assessed on the basis of apparent drug-related deaths and net body weight loss [i.e., (initial weight−lowest weight/initial weight)×100%]. Death was considered drug-related when occurring within 7 days after the last treatment.
# 43 was dissolved in 70 mM PBS without potassium, and injected intravenously (iv) at different doses (40-200 mg/kg) to establish the maximal tolerated dose.
# TMZ was dissolved in dimethyl-sulfoxide (40 mg/ml), diluted in saline (5 mg/ml) and administered ip at doses commonly used for in vivo preclinical studies (Friedman 1995; Middleton 2000; Kokkinakis 2001). Experiments were performed using different doses and schedules of TMZ+43 to determine the maximal tolerated dose of the drug combination. 43 was administered 15 min before TMZ administration. Control mice were always injected with drug vehicles.
Structure (SMILES),cardiac protection (infarct size) [1],"intrinsic growth inhibition as single agent ([2]; 1-25 μM 43, B16)","maximal enhancement of TMZ-induced growth inhibition ([2]; B16, 0.6 μM 43) [fold]","susceptibility to antiproliferative effect with respect to SJGBM2 and L5178Y ([2]; B16, 43 as single agent)","inhibition at 1.2 µM ([2]; Mus musculus, B16, 43 at 1.2 μM, read-out: growth inhibition with respect to control) [%]","intrinsic growth inhibition as single agent ([3]; 1-25 μM 43, SJGBM2)","maximal increase of TMZ growth inhibitory effect ([3]; SJGBM2, 1.2 μM 43) [fold]","intrinsic growth inhibitory effect ([3]; SJGBM2, 2.5 μM 43)","intrinsic growth inhibition as single agent ([4]; 1-25 μM 43, L5178Y)","maximal increase of TMZ growth inhibitory effect ([4]; L5178Y, 1.2 μM 43) [fold]","intrinsic growth inhibitory effect ([4]; L5178Y, 2.5 μM 43)","tumor growth, 43 only (B16 melanoma [5]; 43 40 mg/kg/day iv, single agent)","enhancement of the antitumor effects of TMZ (B16 melanoma [5]; TMZ 100 mg/kg/day ip + 43 40 mg/kg/day iv, P <0.0001)",tumor infiltration in the brain (histology) (B16 melanoma [6]),blood-brain barrier crossing [7],survival of tumor bearing mice [8],highest tolerable dose of the drug combination [9] [mg/kg/day]
"CN1CCN(Cc2ccc3c(c2)-c2n[nH]c(=O)c4cccc(c24)O3)CC1 [Compound 43, 10-(4-Methyl-piperazin-1-ylmethyl)-2H-7-oxa-1,2-diaza-benzo[de]anthracen-3-one]",significant cardiac protection,some intrinsic growth inhibition,10,more susceptible,18 ± 3,some intrinsic growth inhibition,~4,intrinsic growth inhibitory effect,some intrinsic growth inhibition,~10,intrinsic growth inhibitory effect,did not affect tumor growth,significantly enhanced,pronounced and diffuse tumor infiltration,capable of crossing the blood-brain barrier,–,–
"Cn1nnc2c(C(N)=O)ncn2c1=O [TMZ, temozolimide]",–,–,–,–,–,–,–,–,–,–,–,–,–,limited but multifocal infiltration,–,completely ineffective,100
